In PMC8596843, “Platinum Cyclooctadiene Complexes with Activity against Gram‐positive Bacteria” (Chemmedchem, 2021):

Columns and labels:
[1] = tested on: HEK-293 ATCC CRL-1573 human embryonic kidney cells; format: cell-based
Description: As part of the CO‐ADD screening, all compounds that show any activity against a microbial strain are evaluated for their cytotoxicity against human embryonic kidney cells (HEK‐293) and for haemolysis against human red blood cells. None of the compounds tested for cytotoxicity (Pt1‐9 and Pd1) caused any significant cell death up to concentrations of 100 μM. […] We have also observed higher IC50 values for the methylated complexes Pt3 and Pt4 against HeLa cells in previous work.[16] […]
(§1) inhibitors as positive control.
(§2) Tamoxifen (Sigma T5648) was used
(§3) as internal control on each plate.
in a Neubauer haemocytometer. […]

human red blood cells = assay: Haemolysis assay; format: cell-based; conditions: for Haemolysis HC10: concentration inducing 10 % haemolysis; for Haemolysis HC50: concentration inducing 50 % haemolysis
Description: As part of the CO‐ADD screening, all compounds that show any activity against a microbial strain are evaluated for their cytotoxicity against human embryonic kidney cells (HEK‐293) and for haemolysis against human red blood cells. None of the compounds tested for cytotoxicity (Pt1‐9 and Pd1) caused any significant cell death up to concentrations of 100 μM. […] We have also observed higher IC50 values for the methylated complexes Pt3 and Pt4 against HeLa cells in previous work.[16]
(§4) The resultant mid-log phase cultures were diluted
(§5) Gram-negative and Gram-positive bacteria, respectively.
(§6) final concentration range of 0.8 – 100 µM.
as §1, §2, §3
in a Neubauer haemocytometer.
incubated for 1 h at 37 °C, without shaking.
HC10 and HC50 (concentration at which 10%
for top, bottom and slope using Prism 8. […]

[2] = tested on: Staphylococcus aureus ATCC 25923, MSSA; assay: Antibacterial MIC assay, Gram-positive panel; format: cell-based; conditions: Table S1 panel; n=4
Excerpt: (§7) Bis(dimethyl-η4)-((1Z,1'E,5Z,5'E)-(1,1'-bi(cyclooctadiene))diplatinum(II) (Pt14) Smiles: C1C=CCCC(=CC1)C1=CCCC=CCC1.C[Pt]C.C[Pt]C
(§8) InChIKey: PHIWIZAHOBWKFJ-HPCBIOCFSA-N
(§9) Link to selected data that was repeated to approve the identity of the compounds: https://dx.doi.org/10.14272/PHIWIZAHOBWKFJ-HPCBIOCFSA-N.1
(§10) ATCC strains were sourced from the American Type Culture Collection and NRS strains from NARSA (Network on Antimicrobial Resistance in Staphylococcus aureus) via BEI Resources (www.beiresources.org), with clinical MSSA and MRSA isolates from Prof Graeme Nimmo, Queensland […]
(§11) Health Central Pathology. […]
(§12) Antibacterial minimum inhibitory concentration (MIC) assay
(§13) Compound Assay Plate Preparation: Compounds were dissolved in DMSO at 10mM (CO-ADD screening) or 4 mM (follow up screening) and were plated in a 2-fold dose response from 20 to 0.156 µM or 200 to 0.006 µM respectively, with a maximum of 0.5% or 1% DMSO, final in the assay […]
(§14) plated in a 2-fold dose response from 200 to 0.006 µM, with a maximum of 1 % DMSO, final in the assay concentration. (in-house screening)
(§15) For all the bacterial assays, each strain was cultured in Cation-adjusted Mueller Hinton broth (CAMHB; Bacto Laboratories 212322) at 37 °C overnight. A sample of each culture was then diluted 40-fold in fresh CAMHB and incubated at 37 °C for 1.5–3 h. The resultant mid-log phase cultures were diluted with CAMHB (CFU mL−1 measured by OD600), then added to each well of the compound-containing plates (384-well non-binding surface (NBS) plates; Corning CLS3640), giving a cell density of 5 × 10^5 CFU mL−1 and a total volume of 50 μL. Plates were covered and incubated at 37 °C for 18 h without shaking. Inhibition of bacterial growth was determined measuring absorbance at 600 nm (OD600), using media only as negative control and bacteria without inhibitors as positive control. MIC values were determined as the lowest concentration at which the growth was inhibited at ≥80%. Colistin sulfate (Sigma C4461) and vancomycin HCl (Sigma 861987) were used as internal controls on each plate for Gram-negative and Gram-positive bacteria, respectively. […]

[3] = tested on: Staphylococcus aureus VRS 1, VRSA (VanA); assay: Antibacterial MIC assay, Gram-positive panel; format: cell-based; conditions: Table S1 panel; n=4
Excerpt: as §7, §8, §9, §10, §11, §12, §13, §14, §15

[4] = tested on: Enterococcus faecalis Clinical Isolate, VRE (VanB); assay: Antibacterial MIC assay, Gram-positive panel; format: cell-based; conditions: Table S1 panel; n=4
Description: (§16) Smiles: C1C=CCCC(=CC1)C1=CCCC=CCC1.C[Pt]C.C[Pt]C […]
as §10, §11, §12, §13, §14, §15

[5] = tested on: Enterococcus faecium ATCC 35667, type strain; assay: Antibacterial MIC assay, Gram-positive panel; format: cell-based; conditions: Table S1 panel; n=4
Description: as §16, §10, §11, §12, §13, §14, §15

[6] = tested on: Staphylococcus epidermidis ATCC 14990, type strain; assay: Antibacterial MIC assay, Gram-positive panel; format: cell-based; conditions: Table S1 panel; n=4
Description: as §16, §10, §11, §12, §13, §14, §15

[7] = tested on: Staphylococcus epidermidis NRS 60, VISE; assay: Antibacterial MIC assay, Gram-positive panel; format: cell-based; conditions: Table S1 panel; n=4
Description: as §16, §10, §11, §12, §13, §14, §15

[8] = tested on: E. coli lpxC (non‐efficient lipid A production mutant); assay: MIC against E. coli membrane mutants; format: cell-based, Escherichia coli; conditions: Table S2
Description: as §12
(§17) concentration. (in-house screening)
(§18) Bacto Laboratories 212322) at 37 °C overnight.
as §4, §5, §6
(§19) inhibitors as positive control. […]

[9] = tested on: E. coli tolC (efflux pump deficient); assay: MIC against E. coli membrane mutants; format: cell-based, Escherichia coli; conditions: Table S2
Description: as §12, §17, §18, §4, §5, §6, §19

[10] = tested on: B. subtilis ATCC 6051 type strain; assay: MIC in the presence of human serum (serum reversal); format: cell-based, Bacillus subtilis; conditions: 10% serum
Excerpt: (§20) To obtain some initial insight into the apparent disparity between in vitro and in vivo results, we repeated the MIC experiments against four selected Gram‐positive strains in the presence of 10 % or 50 % human serum (Table S3). Pt1 and Pt2 maintained some antibacterial activity against B. subtilis in the presence of 10 % serum, but a complete loss of activity was observed against MRSA and GISA (50 % serum), and VRE (10 % serum). […] Systemic administration is therefore unlikely to be a suitable administration route for this class of compounds unless an alternative formulation that can prevent serum binding (e. g. by lipid or nanoparticle encapsulation) can be found. […] Further in vivo studies should therefore focus on more suitable disease models. […]
as §12, §17, §18, §4, §5, §6, §19

[11] = tested on: S. aureus ATCC 43300 MRSA; assay: as above; format: cell-based, Staphylococcus aureus; conditions: 50% serum
Excerpt: as §20, §12, §17, §18, §4, §5, §6, §19

S. aureus NRS 17 GISA = assay: as above; format: cell-based, Staphylococcus aureus; conditions: 50% serum
Excerpt: as §20, §12, §17, §18, §4, §5, §6, §19

[12] = tested on: E. faecium ATCC 51559 MDR, VRE; assay: as above; format: cell-based, Enterococcus faecium; conditions: 10% serum
Excerpt: as §20, §12, §17, §18, §4, §5, §6, §19

[13] = tested on: Staphylococcus aureus ATCC 43300 (MRSA); assay: microbe, parasite or virus in culture; format: cell-based; conditions: for MIC Sa: CO‐ADD screening
Description: (§21) All compounds submitted to CO‐ADD are initially screened against five bacterial strains (Staphylococcus aureus (MRSA), E. coli, Klebsiella pneumoniae, Pseudomonas aeruginosa, Acinetobacter baumannii) and two fungal strains (Candida albicans, Cryptococcus neoformans) at a single concentration (32 μg/mL or 20 μM) performed as a high‐throughput primary screening.[[11], [17a]] Any compounds that show significant growth inhibition against any of the tested strains at this step are then evaluated in a dose‐response assay against these same strains. […]
as §16, §10, §11, §12, §13, §14, §15

[14] = tested on: Acinetobacter baumannii ATCC 19606; assay: Antibacterial MIC assay; format: cell-based; conditions: CO‐ADD screening
Description: as §21, §16, §10, §11, §12, §13, §14, §15

[15] = tested on: Escherichia coli ATCC 25922; assay: Antibacterial MIC assay; format: cell-based; conditions: CO‐ADD screening
Description: as §21, §16, §10, §11, §12, §13, §14, §15

[16] = tested on: Pseudomonas aeruginosa ATCC 27853; assay: Antibacterial MIC assay; format: cell-based; conditions: CO‐ADD screening
Description: as §21, §16, §10, §11, §12, §13, §14, §15

[17] = tested on: Klebsiella pneumoniae ATCC 700603 (ESBL SHV‐18)
Description: as §21, §16, §10, §11, §12, §13, §14, §15

[18] = tested on: Candida albicans ATCC 90028; assay: Antifungal MIC (CO-ADD screening); format: cell-based
Description: as §8
(§22) Health Central Pathology. Candida albicans (ATCC 90028, NCCLS 11), Cryptococcus neoformans
as §12, §17, §18

[19] = tested on: Cryptococcus neoformans H99 ATCC 208821; assay: Antifungal MIC (CO-ADD screening); format: cell-based
Description: as §8, §22, §12, §17, §18

[20] = tested on: Enterococcus faecalis ATCC 29212, control strain; assay: Antibacterial MIC assay, Gram-positive panel; format: cell-based; conditions: Table S1 panel; n=4
Description: as §16, §10, §11, §12, §13, §14, §15

[21] = tested on: Enterococcus faecium ATCC 51559, MDR, VRE (VanA); assay: Antibacterial MIC assay, Gram-positive panel; format: cell-based; conditions: Table S1 panel; n=2
Description: as §16, §10, §11, §12, §13, §14, §15

[22] = tested on: Enterococcus faecium Clinical Isolate, VRE (VanA); assay: Antibacterial MIC assay, Gram-positive panel; format: cell-based; conditions: Table S1 panel; n=4
Description: as §16, §10, §11, §12, §13, §14, §15

HT‐29 colon carcinoma = tested on: HT‐29 colon carcinoma; parameters: method as in earlier work; conditions: ref 14a, read-out: IC50 cytotoxicity; cited from earlier work
[23] = tested on: MCF‐7 breast cancer cells; parameters: method as in earlier work; conditions: ref 14a, read-out: IC50 cytotoxicity; cited from earlier work
[24] = tested on: Staphylococcus aureus NRS 17, GISA; assay: Antibacterial MIC assay, Gram-positive panel; format: cell-based; conditions: Table S1 panel; n=2
Description: as §16, §10, §11, §12, §13, §14, §15

Row | SMILES | CC50 [1] [µM] | Haemolysis HC10 (human red blood cells) [µM] | Haemolysis HC50 (human red blood cells) [µM] | MIC [2] [µM] | MIC [3] [µM] | MIC [4] [µM] | MIC [5] [µM] | MIC [6] [µM] | MIC [7] [µM] | MIC E. coli lpxC [8] [µM] | MIC E. coli TolC [9] [µM] | MIC in the presence of human serum [10] [µM] | MIC in the presence of human serum [11] [µM] | MIC in the presence of human serum (S. aureus NRS 17 GISA) [µM] | MIC in the presence of human serum [12] [µM] | MIC Sa [13] [µM] | MIC Ab [14] [µM] | MIC Ec [15] [µM] | MIC Pa [16] [µM] | MIC Kp [17] [µM] | also measured
1 | C1=CCCC=CCC1.[CH3][Pt][CH3] [Pt3] | > 100 | >100 | >100 | 50 | > 200 | 200 | 200 | 6.25 | 25 | 200 | > 200 | > 200 | > 200 | > 200 | > 200 |  |  |  |  |  | 
2 | C1=CCCC=CCC1.[CH3][Pt][Cl] [Pt4] | > 100 | 10.23 | 52.11 | 100 | > 200 | > 200 | > 200 | 50 | 100 |  |  | > 200 | > 200 | > 200 | > 200 | >20 | >20 | >20 | >20 | >20 | MIC ([13]; Table S1 panel, n=2): 6.25 µM; MIC Ca [18]: 5 to 10 µM; MIC Cn [19]: 10 to 20 µM; MIC [20]: > 200 µM; MIC [21]: 25 µM; MIC [22]: 200 µM; IC50 (HT‐29 colon carcinoma): 8.3 ± 3 µM; IC50 [23]: 11.2 ± 1.4 µM
3 | C1=CCCC=CCC1.COc1cc[c]([Pt][CH3])cc1 [Pt5] | > 100 | 88.43 | >100 | 100 | 200 | > 200 | > 200 | 50 | 50 | > 200 | > 200 | > 200 | > 200 | > 200 | > 200 | >20 | >20 | >20 | >20 | >20 | MIC Ca [18]: 10 µM; MIC Cn [19]: 20 µM; MIC [20]: > 200 µM; MIC [21]: 200 µM; MIC [22]: 200 µM; MIC [24]: 100 µM
